Measurements taken from patent US20220249415A1, “COMPOSITION OF AZELAIC ACID HAVING ADIPOSE TRIGLYCERIDE HYDROLYSIS EFFECT” (Korea University Research and Business Foundation, priority 2018, published 2022).
Entries after “also recorded” stand apart in the source; their conditions may differ.

Experiments:
[1] = tested on: 3T3-L1 adipocytes; assay: cAMP assay (ELISA kit) in 3T3-L1 adipocytes; assay type: cell-based, mouse; conditions: 50 μM azelaic acid, 18 hours
Experimental: (§1) Therefore, changes in concentrations of cAMP, IP-one (metabolite of IP3), and calcium, which are second messengers by azelaic acid corresponding to the Olfr544 ligand, in 3T3-L1 adipocytes were measured. Since IP3 has low stability to thereby be easily decomposed to IP-one, an amount of intracellular IP-One (metabolite of IP3) was quantified instead of IP3.
cAMP assay uses the principle to estimate a production amount of cAMP corresponding to a second messenger of a GPCR receptor activated by a ligand using a cAMP standard calibration curve. A 96-well plate included in a cAMP assay ELISA kit (Enzo Life science, New York, U.S.) was coated with a G×R IgG antibody, and after cAMP of a blue solution for obtaining the standard calibration curve was bound to alkaline phosphatase, the color of the blue solution was changed to yellow by a rabbit antibody. When alkaline phosphatase was activated by adding a pNpp substrate to a well bound to cAMP, a color change occurred, such that the concentration of cAMP may be measured at a wavelength of 405 nm using colorimetric analysis. In the present experiment, 1×10^4 3T3-L1 adipocytes were seeded in each well of the 96-well plate and differentiated, and then treated with 50 μM azelaic acid and 1 μM Foskolin corresponding to a positive control for 18 hours. Then, the concentration of cAMP was measured by the method described above.

[2] = tested on: 3T3-L1 adipocytes; assay: Glycerol release (triglyceride hydrolysis) from 3T3-L1 adipocytes; assay type: cell-based, mouse; conditions: 50 μM azelaic acid, 2 hours
Experimental: Further, in order to confirm whether or not azelaic acid has an effect of hydrolyzing triglycerides, a release amount of glycerol corresponding to a product of triglyceride hydrolysis was measured.

[3] = tested on: 3T3-L1 adipocytes in which the Olfr544 gene was knocked-down; assay: Lipolysis (glycerol) in adipocytes in which Olfr544 gene was knocked-down; assay type: cell-based, mouse; conditions: Olfr544 shRNA transfected adipocytes treated with azelaic acid for 2 hours
Experimental: After the Olfr544 gene was knocked-down in the mouse adipocytes, the adipocytes were treated with azelaic acid, and whether or not a triglyceride hydrolysis effect of azelaic acid was maintained was confirmed.

[4] = target: T1, OR2K2 (Homo sapiens, UniProt Q8NGT1); assay: siRNA knock-down of OR2K2 in hAMSC cells, lipolysis; assay type: cell-based; conditions: treated with azelaic acid
T1 construct: endogenous in cells; host or cells: HepG2
T1 sequence (Q8NGT1 1-316): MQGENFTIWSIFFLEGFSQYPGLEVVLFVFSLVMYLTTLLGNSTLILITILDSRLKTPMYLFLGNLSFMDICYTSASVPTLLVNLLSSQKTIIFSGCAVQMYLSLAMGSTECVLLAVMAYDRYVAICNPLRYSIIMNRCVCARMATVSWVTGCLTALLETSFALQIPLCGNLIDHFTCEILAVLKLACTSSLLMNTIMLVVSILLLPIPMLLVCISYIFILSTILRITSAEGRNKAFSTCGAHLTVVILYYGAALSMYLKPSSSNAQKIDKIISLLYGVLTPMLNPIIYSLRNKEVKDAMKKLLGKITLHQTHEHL
Text: The gene expression of OR1E1, OR1K1, OR2K2, OR2S2, OR13C5, and OR51E2, corresponding to the top 6 receptors among 10 human olfactory receptors selected to be expressed in both adipose tissue and liver tissue while interacting with azelaic acid, was knocked down with siRNA in human-derived liver cell and adipocyte lines, namely HepG2 cells and hAMSC cells, respectively. Here, siRNAs that were used were OR1E2 siRNA (sc-93932), OR1K2 (sc-92810), OR2K2 (sc-92852), OR2S2 (sc-92505), OR13C5 (sc-92899), and OR51E2 (sc-76265), purchased from Santa Cruz Biotechnology Inc. (Dallas, Tx USA).
After knock-down treatment, the cell lines were treated with azelaic acid, and triglyceride hydrolysis and fatty acid oxidation-related gene expression in HepG2 cells as a human-derived liver cell line and hAMSC cells as a human-derived adipocyte line were measured.

[5] = tested on: HepG2 cells; assay: Treatment of human liver tissue cell line HepG2 with azelaic acid; assay type: cell-based; conditions: azelaic acid 50 μM
[6] = reported results of a study; formed in the body; cited from earlier work
[7] = tested on: 3T3-L1 adipocytes; assay: MTT assay, cytotoxicity of azelaic acid; assay type: cell-based, mouse; conditions: azelaic acid up to 500 μM, 24 hours
Experimental: In order to evaluate cytotoxicity of azelaic acid, MTT assay was performed.
The MTT assay is a test method using an ability of mitochondria reducing MTT tetrazolium, a yellow water-soluble substrate, to a blue purple water-insoluble MTT formazane […]. An MTT reagent was prepared by diluting C18H16BrN5S (Thiazoly Blue Tetrazolium Bromide) in phosphate buffered saline (PBS) at a concentration of 2 to 5 mg/ml.
First, after the 3T3-L1 adipocytes (4×10^5 cells/ml) were seeded in a 96-well plate and cultured at 37° C. under 5% CO2 conditions for 24 hours, the cultured 3T3-L1 adipocytes were treated with azelaic acid in a concentration range of 0 to 500 μM and cultured for 24 hours. After 100 μL of the MTT reagent was added to each test sample at a concentration of 4 mg/mL and cultured at 37° C. under 5% CO2 conditions for 4 hours, 100 μL of dimethyl sulfoxide (DMSO) was added thereto, and absorbance was measured at 540 nm. An absorbance value is to quantify an apoptotic effect due to toxicity using the principle that absorbance is in proportion to the number of living cells.

[8] = tested on: normal mice; assay: Energy metabolism by indirect calorimetry in normal mice; assay type: in vivo, mouse; conditions: 50 mg/kg oral, 6 weeks
Text: Relative metabolic rates were confirmed by measuring consumption amount of O2 and production amounts of CO2 of an azelaic acid administration group and a control group using indirect calorimetry.

[9] = tested on: 3T3-L1 adipocytes; assay: IP-one assay (ELISA) in 3T3-L1 adipocytes; assay type: cell-based, mouse; conditions: 50 μM azelaic acid, 18 hours
Experimental: as §1
IP-one assay is a method of measuring a concentration of IP3 corresponding to a second messenger formed by phospholipolysis by phospholipase in a GPCR signal transduction process to measure an ability to regulate protein kinase C (PKC) signal transduction. In the present experiment, 1×10^4 3T3-L1 adipocytes were seeded in each well of the 96-well plate and differentiated, and then treated with 50 μM azelaic acid for 18 hours. Then, in order to measure IP3, the concentration of intracellular IP-one (metabolite of IP3, a surrogate marker) of which an error was small was measured using an IP-one ELISA Assay kit (Cisbio, France).

lipolytic effect, knock-down group compared to control group [4]: statistically significantly decreased
SMILES: O=C(O)CCCCCCCC(=O)O [azelaic acid, nonanedioic acid]
concentration of intracellular cAMP [1]: significantly increased
glycerol (product of triglyceride hydrolysis) increased as compared to the control [2]: 46.7%
concentration of glycerol [3]: no change
triglyceride concentration ([5]; HepG2 cells (lipid-loaded)): significantly decreased
CREB phosphorylation (p-CREB) ([5]; HepG2 cells): increased
cAMP-PKA signaling pathway ([5]; HepG2 cells): activated
expression of fatty acid oxidation-related gene PPAR-α ([5]; HepG2 cells): increased
fatty acid oxidation (FA oxidation) ([5]; HepG2 cells): increased
concentration of azelaic acid in a human body [6]: 10 to 50 µM
cytotoxicity (MTT assay) [7]: cytotoxicity was not observed; also recorded: toxicity was not exhibited
consumption amount of O2 ([8]; vs control): no large difference
fatty acid oxidation ([8]; vs control): increased
respiratory quotient (RQ) ([8]; vs control): decreased
total energy expenditure (EE) ([8]; vs control): no change
production amount of CO2 ([8]; vs control group): significantly increased
concentration of IP3 (IP-one) [9]: did not affect
